Reference: patent US10251867B2, “Dosing regimen for a selective S1P1 receptor agonist” (ACTELION PHARMACEUTICALS LTD, priority 2008, dated 2019)
Where two headings read alike, the source gives them in different places. Blank lines part the entries; values can stand above or below the molecule they belong to.

Tests used:
[1] = tested on: multiple sclerosis patients; conditions: cited from earlier work
humans [2] = conditions: cited from earlier work
[3] = tested on: healthy male and female subjects; assay: Multiple-ascending dose (MAD) study AC-058-102 Part A, heart rate without up-titration; format: in vivo, human; conditions: Day 1, Part A
Experimental: In Part A of the multiple-ascending dose (MAD) study (AC-058-102), Compound 1 was administered orally with doses of 5, 10, and 20 mg once-daily for 7 days to healthy male and female subjects (aged 22-58 years, 1:1 sex ratio) in a randomized, double-blind, placebo-controlled design. At each dose level, a group of 10 subjects were randomized to Compound 1 (8), or placebo (2). In Part A, all 30 randomized subjects completed the study and the 24 subjects who were treated with Compound 1 were included in the PK analysis.

healthy male subjects = assay: Single-ascending dose (SAD) study AC-058-101, heart rate; format: in vivo, human; conditions: without up-titration; 50 mg SAD, Day 1
Experimental: In the single-ascending dose (SAD) study (AC-058-101), Compound 1 was administered orally to 6 groups of […] (aged 21-47 years). Doses of 1, 3, 8, 20, 50 and 75 mg were given to sequential groups of 8 subjects (6 on active drug and 2 on placebo) in a randomized, double-blind, placebo-controlled design. The dose of 20 mg was given once in the fasted and once in the fed condition, to assess any food effects on the pharmacokinetics of Compound 1. ECGs were recorded, clinical laboratory parameters, vital signs, pulmonary function, neurological assessments (in the 75-mg dose group), plasma levels of Compound 1, and peripheral lymphocyte counts (total and subsets) were determined. All 48 randomized subjects were evaluable and no subjects withdrew or discontinued from the study. All subjects treated with Compound 1 (n=36) were included in the pharmacokinetic (PK) and pharmacodynamic (PD) analysis.

subjects = assay: MAD study AC-058-102 Part B, up-titration scheme (10/20/40 mg), heart rate and ECG; format: in vivo, human; conditions: for Mean HR reduction (2.5 h post-dose vs pre-dose): with up-titration, Part B 40-mg dose group
Experimental: In Part B of the MAD study, an up-titration scheme was implemented in order to reduce first-dose effects of Compound 1 on sinus node automaticity and atrioventricular- (AV-) conduction. Treatment with Compound 1 started for 4 days with 10 mg once daily, followed by 4 days with 20 mg once daily, and 7 days with 40 mg once daily. Seventeen subjects (nine females and eight males, aged 18-43 years) were randomized. Thirteen subjects received active treatment and four subjects received matching placebo. A total of 15 out of the 17 subjects completed the study as scheduled. […] The 11 subjects treated with 40-mg Compound 1 who completed the study were included in the PK analysis of Compound 1.

humans [4] = format: in vivo, human
Source text: All of these effects wane with repeated dosing. […] The acute effects on heart rate, atrioventricular conduction, or fatigue and dizziness, although not seriously adverse, are undesirable, and methods to minimize these effects would be valuable for maximizing the tolerability and safety of Compound 1, and other selective S1P1 receptor agonists, and minimizing associated monitoring requirements, in the early phase of dosing initiation, or, after a drug interruption, at re-initiation of drug therapy.
Desensitization has been sustained over this 24-hour dosing interval. […] Desensitization has not been sustained over this 7-day dosing interval of the 20-mg dose. […]

Structure (SMILES): CCCCCCCCc1ccc(CCC(N)(CO)CO)cc1 [FTY720]
Rate of clinical relapses [1]: reduce the rate of clinical relapses
Effect on heart rate (humans [2]): reduces heart rate in humans

Fatigue or dizziness (humans [4]; in vivo): Occasional fatigue or dizziness
Structure (SMILES): CCC/N=C1\S/C(=C\c2ccc(OC[C@H](O)CO)c(Cl)c2)C(=O)N1c1ccccc1C [Compound 1, (R)-5-[3-chloro-4-(2,3-dihydroxy-propoxy)-benz[Z]ylidene]-2-([Z]-propylimino)-3-o-tolyl-thiazolidin-4-one]
Mean HR reduction (2.5 h post-dose vs baseline) ([3]; 10 mg): 14 bpm
Mean HR reduction (2.5 h post-dose vs baseline) ([3]; 20 mg): 22 bpm
Mean HR reduction (2.5 h post-dose vs baseline) (healthy male subjects): 18 bpm
Second or third degree AV-blocks (subjects; Part B): No second or third degree AV-blocks were observed
Effects on other ECG variables (subjects; Part B, multiple dosing): No relevant effects on other ECG variables were recorded
Discontinuation of dosing due to adverse events (subjects; Part B, 13 subjects on active treatment): Dosing was discontinued in two subjects on active treatment due to adverse events
AV-block first degree (subjects; Part B, after first 10 mg dose on Day 1): only one subject reported a transient AV-block first degree
Mean HR reduction at 2.5 h post-dose vs pre-dose (subjects; Part B, day 2 (10 mg)): 2 bpm
Mean HR reduction at 2.5 h post-dose vs pre-dose (subjects; Part B, day 3 (10 mg)): 1 bpm
Mean HR reduction at 2.5 h post-dose vs pre-dose (subjects; Part B, day 4 (10 mg)): 1 bpm
Mean HR reduction at 2.5 h post-dose vs pre-dose (subjects; Part B, day 6 (20 mg)): 4 bpm
Mean HR reduction at 2.5 h post-dose vs pre-dose (subjects; Part B, day 7 (20 mg)): 3 bpm
Mean HR reduction at 2.5 h post-dose vs pre-dose (subjects; Part B, day 8 (20 mg)): 3 bpm
Mean HR reduction (2.5 h post-dose vs pre-dose) (subjects; 10 mg, Day 1): 14 bpm
Mean HR reduction (2.5 h post-dose vs pre-dose) (subjects; 20 mg, Day 5): 9 bpm
Mean HR reduction (2.5 h post-dose vs pre-dose) (subjects; 40 mg, Day 9): 4 bpm
Acute effects on heart rate and rhythm and fatigue/dizziness, dose comparison (humans [4]; in vivo): milder at 10 mg than at 20 mg
Effect on heart rate (humans [4]; in vivo): transiently reduces heart rate
Heart rhythm (humans [4]; in vivo): irregular heart rhythm (so-called Wenckebach rhythm)
PR interval in the electrocardiogram (ECG) (humans [4]; in vivo): transient increases in the PR interval
Time of maximal heart rate effect after administration (humans [4]; in vivo): 1 to 3 h
Acute heart rate reduction (humans [4]; in vivo, po): results in an acute heart rate reduction on Day 1
Acute heart rate reduction compared to the pre-dose value (humans [4]; in vivo, po): no longer observed
Number of peripheral blood lymphocytes (humans [4]; repeated daily oral dosing of 5 mg or more): consistent, sustained, and dose-dependent reduction in the number of peripheral blood lymphocytes
